Measurements published in US8445677B2, “Substituted pyrimidyl guanidine derivatives having anticancer activity” (University of Southern California, priority 2008, dated 2013).
Several values for one entry are separate records, joined by “and”; a condition that tells them apart may be missing. Equal entries are not always repeated.

What was measured:
Test in all cases: MTT cytotoxicity assay (Example 1)
HCT116 p53+/+ = format: cell-based; details: MTT, 72 h
Description: (§1) Human breast cancer cells MDA-MB-435 were purchased from the American Type Culture Collection (Manassas, Va.). The HCT116 p53+/+ and HCT116 p53−/− cells were kindly provided by Dr. Bert Vogelstein (Johns Hopkins Medical Institutions, Baltimore, Md.). The human ovarian carcinoma cell line (HEY) which is naturally resistant to cisplatin, was kindly provided by Dr. Louis Dubeau, University of Southern California (USC) Norris Cancer Center, and NIH3T3 normal mouse fibroblast cells were kindly provided by Dr. Michael Press from USC. HEY and NIH3T3 cells were maintained as monolayer cultures in RPMI, HCT 116 cells in McCoy1s5A media and MDA-MB 435 in DMEM. Media were purchased from (Mediatech, Virginia) and supplemented with 10% fetal bovine serum (Gemini-Bioproducts, Woodland, Calif.), 2 mM L-glutamine and 5% Penicillin/streptomycin from Bio whittaker were purchased from VWR. Cells were incubated at 37° C. in a humidified atmosphere of 5% CO2. To remove the adherent cells from the flask for passaging and counting, cells were washed with PBS without calcium or magnesium, incubated with a small volume of 0.25% trypsin-EDTA solution (Sigma-Aldrich, St. Louis, Mo.) for 5-10 min, and washed with culture medium and centrifuged. All experiments were performed using cells at exponential growth stage. Cells were routinely checked for mycoplasma contamination using a PCR-based assay (Stratagene, Tex., USA).
(§2) Stock solutions (10 mM) of all compounds were prepared in DMSO and stored at −20° C. Further dilutions were made fresh in PBS or cell-culture media right before cell treatment.
(§3) Cytotoxicity was assessed by a 3-(4,s-dimethylthiazol-2-yl)-2,5-diphenyltetrazolium bromide (MTT) assay as previously described.^24 Briefly, cells were seeded in 96-well microtiter plates and allowed to attach overnight. Cells were subsequently treated with continuous exposure to the corresponding drug for 72 h. A MTT solution (at a final concentration of 0.5 mglml) was added to each well, and cells were incubated for 4 h at 37° C. After removal of the medium, DMSO was added and the absorbance was read at 570 nm. All assays were done in triplicate. The IC50 was then determined for each drug from a plot of log (drug concentration) versus percentage of cells killed.

HCT116 p53−/− = format: cell-based; details: MTT, 72 h
Description: as §1, §2, §3

HEY = format: cell-based, human; details: 72 h
Description: as §1, §2, §3

MDA-MB-435 = format: cell-based, human
Description: as §1, §2, §3

NIH3T3 = format: cell-based, mouse
Description: as §1, §2, §3

| SMILES | IC50 (HCT116 p53+/+; Homo sapiens, HCT-116, 72 h) [µM] | IC50 (HCT116 p53−/−; Homo sapiens, HCT-116, 72 h) [µM] | IC50 (HEY; Homo sapiens) [µM] | IC50 (MDA-MB-435; Homo sapiens, MDA-MB-435, 72 h) [µM] | IC50 (NIH3T3; Mus musculus, NIH3T3, 72 h) [µM] | IC50 (HEY) [µM] | IC50 (HCT116 p53−/−) [µM] | IC50 (HCT116 p53+/+) [µM] | IC50 (MDA-MB-435; 72 h) | IC50 (NIH3T3; 72 h) [µM] |
| --- | --- | --- | --- | --- | --- | --- | --- | --- | --- | --- |
| CCOC(=O)c1ccc(Nc2nc3nonc3nc2N/N=C/c2cccc3ccccc23)cc1 [Compound 11] | > 10 | 2 | 4 | > 10 | 2 |  |  |  |  |  |
| CCCCn1c(=O)c(C(=O)Nc2nc(CC(=O)OCC)cs2)c(O)c2ccccc21 [Compound 32] | 10 ± 1 | > 10 | 15 | 20 | 8 |  |  |  |  |  |
| O=C(Nn1c(Cc2ccccc2)nc2ccccc2c1=O)c1c(O)c2cccc3c2n(c1=O)CCC3 [Compound 28] | > 20 | > 10 | 19 | > 10 | > 10 | 15 |  |  |  |  |
| COc1ccccc1Nc1nc2nonc2nc1N/N=C/c1ccccc1F [Compound 10] | > 10 | > 10 | > 10 | > 10 | > 10 |  |  |  |  |  |
| O=C(O)c1cc(-c2ccc(C=NNc3nc4nonc4nc3Nc3cccc(Br)c3)o2)ccc1O [Compound 18] | > 10 | > 10 | > 10 | > 10 | 11 |  |  |  |  |  |
| Brc1ccc(/C=N/Nc2nc3nonc3nc2Nc2cccc(Br)c2)cc1 [Compound 5] | 2 | 1.1 | 2 | > 10 | 1 | 3 | 1.2 |  |  |  |
| O=C(O)c1cc(-c2ccc(/C=N/Nc3nc4nonc4nc3Nc3ccccc3F)o2)ccc1Cl [Compound 17] |  |  |  |  |  | 15 | > 10 | 7 ± 1 | > 20 µM | > 10 |
| CCCc1nc2ccccc2c(=O)n1NC(=O)c1c(O)c2cccc3c2n(c1=O)CCC3 [Compound 27] | > 20 | > 10 | > 20 | > 20 | 12 |  |  |  |  |  |
| COc1ccc(/C=N/Nc2nc3nonc3nc2Nc2ccccc2OC)cc1Br [Compound 9] | > 20 | > 10 | > 10 | > 20 | > 10 |  |  |  |  |  |
| Cc1cccc(Nc2nc3nonc3nc2NN=Cc2ccc(-c3cccc(C(=O)O)c3)o2)c1 [Compound 20] | > 10 | > 10 | 8 | > 10 | 10 |  |  |  |  |  |
| O=C(O)c1cc(-c2ccc(C=NNc3nc4nonc4nc3Nc3ccc(F)cc3)o2)ccc1Cl [Compound 13] | > 10 | 7 | > 10 | > 10 | 10 |  |  |  |  |  |
| COC(=O)c1ccc(/C=N/Nc2nc3nonc3nc2Nc2ccccc2F)cc1 [Compound 1] | > 10 | 10 | 10 | 5 | > 10 |  |  |  |  |  |
| c1cc(N2CCOCC2)ccc1Nc1nc2nonc2nc1Nc1ccc(N2CCOCC2)cc1 [Compound 23] | > 10 | > 10 | > 10 | > 10 | > 10 |  |  |  |  |  |
| Cc1cc(-c2ccc(/C=N/Nc3nc4nonc4nc3Nc3ccccc3F)o2)c(C)c([N+](=O)[O-])c1 [Compound 16] | 1.5 | 0.8 ± 0.1 | 0.8 | 4 | 2 |  |  |  |  |  |
| CCCCCCc1nc2ccccc2c(=O)n1NC(=O)c1c(O)c2ccccc2n(CC)c1=O [Compound 26] | > 20 | > 10 | 20 | > 20 | 20 |  |  |  |  |  |
| CCCn1c(=O)c(C(=O)NNC(=O)COc2ccccc2)c(O)c2ccccc21 [Compound 25] | 10 | > 10 | > 10 | > 20 | > 10 |  |  |  |  |  |
| COC(=O)/C=C1/N=C(Nc2nc3cc(C)ccc3o2)NC1=O [Compound 35] | 5 | 4.2 | 3.5 | 6 | 11 | 2 | 3.4 |  |  | 6 |
| C1C2CC3CC1CC(C2)C3Nc1nc2nonc2nc1NC1C2CC3CC(C2)CC1C3 (centres unmarked) [Compound 24] | 6 | 9 ± 1 | 8 ± 1.7 | 9 | 9 |  |  | 8 |  |  |
| Cc1ccccc1Nc1nc2nonc2nc1N/N=C/c1cccc2ccccc12 [Compound 12] | > 10 | 10 | > 10 | > 10 | 10 |  |  |  |  |  |
| c1coc(CNc2nc3nonc3nc2NCc2ccco2)c1 [Compound 21] | > 20 | > 10 | > 20 | > 20 | > 10 |  |  |  |  |  |
| COc1cc(/C=N/Nc2nc3nonc3nc2Nc2ccc(Cl)cc2)ccc1O [Compound 7] | > 10 | 5.5 | 2 | > 10 | > 10 |  |  |  |  |  |
| COc1cc(/C=N/Nc2nc3nonc3nc2Nc2ccccc2F)ccc1O [Compound 3] | > 10 | > 10 | 5 | > 10 | > 10 |  |  |  |  |  |
| Oc1ccc(Br)cc1/C=N/Nc1nc2nonc2nc1Nc1ccc(Cl)cc1 [Compound 6] | < 3 | < 3 | < 3 | < 3 | 2 ± 0.5 | 1.6 ± 0.6 | 1.6 ± 0.7 | 2.7 ± 0.6 | 4 ± 1 µM |  |
| CCOc1ccc2nc(NC(=N)/N=C(\C)c3ccccc3C(=O)O)nc(C)c2c1 [Compound 34] | 20 | 10 | 7 | > 20 | > 10 |  |  |  |  |  |
| O=C(O)c1ccccc1Nc1nc2nonc2nc1Nc1ccccc1C(=O)O [Compound 22] | > 10 | > 10 | > 10 | > 10 | > 10 |  |  |  |  |  |
| Cc1ccccc1Nc1nc2nonc2nc1N/N=C/c1cc(Br)ccc1O [Compound 8] | 2 | 1.1 ± 0.4 | 5 | > 10 | > 10 |  |  |  |  |  |
| O=C(O)c1cccc(-c2ccc(C=NNc3nc4nonc4nc3Nc3ccc(F)cc3)o2)c1 [Compound 15] |  |  |  | < 3 | 10 |  |  |  | 2.8 µM and 3 µM |  |
| CCCn1c(=O)c(C(=O)Nc2nnc(CC(C)C)s2)c(O)c2ccccc21 [Compound 29] | > 20 | > 10 | > 20 | > 20 | > 10 |  |  |  |  |  |
